Numbered stars: 1 amine (or outer) side, 2 acyl side, 3 side chain; on linkers, the order of the positions; unused ones are H or OH. Bridge positions count the residues as written; N and C are the ends. Square brackets hold non-standard residues; d marks the D form. Peptide text beside a SMILES is read from it. I, II: the chains in the order shown. Actinocin(9to1) = Cc1c2oc3c(C)ccc(C(=O)[*:1])c3nc-2c(C(=O)[*:2])c(N)c1=O; NMeV = CN[C@H](C(=O)O)C(C)C; Sar = CNCC(=O)O
Key:
Intestine = assay: Ratio of intestine AUC in po dosed mdr1 knock out mouse to intestine AUC in po dosed wild type mouse; type: ADME, organism-based; conditions: in vivo
clinical = conditions: human, in vivo
Description: Fraction absorbed in human

in vitro [1] = conditions: human, Caco-2
in vitro [2] = conditions: human, Caco-2; remark: listed apart in the source
in vitro [3] = conditions: human, Caco-2; remark: listed apart in the source
P-gp = assay: in vitro; conditions: human
[4] = biological target: ATP-binding cassette sub-family C member 2 (Homo sapiens, UniProt Q92887); assay: Fold activity change at MRP2 ATPase (unknown origin) relative to control; type: ADME
[5] = human, caco-2, 2 h, 10 µM
[6] = human, caco-2, 2 h, 10 µM; remark: listed apart in the source
MDCK [7] = assay: Efflux ratio of permeability from basolateral to apical over apical to basolateral side of MDCK cells expressing BCRP; type: ADME, cell-based, Canis lupus familiaris; conditions: dog
MDCK [8] = assay: Efflux ratio of permeability from basolateral to apical over apical to basolateral side of MDCK cells expressing MDR1; type: ADME, cell-based, Canis lupus familiaris; conditions: dog
Homo sapiens = species: Homo sapiens; conditions: in vivo
Description: Fraction absorbed in human

ATP-binding cassette sub-family C member 2, sequence (Q92887 whole entry): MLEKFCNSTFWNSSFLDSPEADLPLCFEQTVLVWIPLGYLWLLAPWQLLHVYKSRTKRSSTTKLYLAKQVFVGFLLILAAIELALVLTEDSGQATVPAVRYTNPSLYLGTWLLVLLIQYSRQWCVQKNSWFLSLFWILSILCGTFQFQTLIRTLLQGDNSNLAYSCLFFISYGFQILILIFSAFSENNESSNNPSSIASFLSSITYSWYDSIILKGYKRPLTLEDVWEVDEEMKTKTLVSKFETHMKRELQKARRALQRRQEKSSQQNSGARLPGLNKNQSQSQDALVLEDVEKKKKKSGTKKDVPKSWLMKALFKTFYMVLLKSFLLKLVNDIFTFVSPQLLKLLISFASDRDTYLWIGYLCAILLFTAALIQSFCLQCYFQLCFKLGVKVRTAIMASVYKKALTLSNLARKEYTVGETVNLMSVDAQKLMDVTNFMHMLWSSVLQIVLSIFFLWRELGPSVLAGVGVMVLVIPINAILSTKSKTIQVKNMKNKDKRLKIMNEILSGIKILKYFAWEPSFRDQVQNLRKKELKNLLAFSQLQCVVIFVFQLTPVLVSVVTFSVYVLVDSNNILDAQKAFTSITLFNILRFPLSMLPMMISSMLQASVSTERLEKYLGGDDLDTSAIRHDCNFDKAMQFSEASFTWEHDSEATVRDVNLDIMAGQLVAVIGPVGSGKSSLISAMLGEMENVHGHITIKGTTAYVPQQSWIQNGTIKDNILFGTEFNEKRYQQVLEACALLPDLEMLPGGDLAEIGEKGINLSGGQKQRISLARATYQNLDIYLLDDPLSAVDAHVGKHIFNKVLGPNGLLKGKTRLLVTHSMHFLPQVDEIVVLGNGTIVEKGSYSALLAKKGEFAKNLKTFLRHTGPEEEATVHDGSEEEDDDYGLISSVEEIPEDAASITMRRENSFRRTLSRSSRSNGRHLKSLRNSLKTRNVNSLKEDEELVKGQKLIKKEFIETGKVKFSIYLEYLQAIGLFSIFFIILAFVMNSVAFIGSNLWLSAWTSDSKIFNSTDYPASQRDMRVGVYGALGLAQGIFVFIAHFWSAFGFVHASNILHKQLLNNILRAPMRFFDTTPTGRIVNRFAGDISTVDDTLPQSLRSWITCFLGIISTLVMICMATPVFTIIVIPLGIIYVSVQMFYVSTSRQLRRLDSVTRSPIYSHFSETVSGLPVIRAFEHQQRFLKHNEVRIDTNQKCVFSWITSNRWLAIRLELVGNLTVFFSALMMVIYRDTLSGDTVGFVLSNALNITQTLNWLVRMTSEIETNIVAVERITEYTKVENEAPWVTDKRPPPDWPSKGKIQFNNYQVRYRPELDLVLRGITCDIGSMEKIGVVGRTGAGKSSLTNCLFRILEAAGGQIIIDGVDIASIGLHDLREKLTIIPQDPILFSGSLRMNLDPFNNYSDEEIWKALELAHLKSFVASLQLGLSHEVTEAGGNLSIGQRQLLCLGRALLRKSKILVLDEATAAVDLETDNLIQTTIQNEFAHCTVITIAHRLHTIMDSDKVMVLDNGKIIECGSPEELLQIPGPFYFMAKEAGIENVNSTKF

Molecule | Ratio AUC (Intestine) | Fa (clinical) | Papp A→B at 2 h, 10 µM (in vitro [1]) | Papp B→A at 2 h, 10 µM (in vitro [2]) | efflux ratio at 2 h, 10 µM (in vitro [3]) | efflux ratio at 2 h, 10 µM (P-gp; Caco-2) | fold change (FC) [4] | Papp [5] | Papp [6] | efflux ratio at 2 h, 10 µM (P-gp; Caco-2, with LY335979 1 uM) | Ratio (MDCK [7]) | Ratio (MDCK [8]) | Fabs (Homo sapiens)
CN/C(=N/CCSCc1nc[nH]c1C)NC#N [CIMETIDINE] | 0.95 | 60% | 1.4 ×10⁻⁶ cm/s | 4.8 ×10⁻⁶ cm/s | 3.5 | 1.8 |  |  |  |  |  |  | 
COc1cc2c(c(OC)c1OC)-c1ccc(OC)c(=O)cc1[C@@H](NC(C)=O)CC2 [COLCHICINE] |  | 44% |  |  | 4.3 | 0.8 | -0.4 |  |  |  |  |  | 
Cc1c2oc3c(C)ccc(C(=O)N[C@@H]4C(=O)N[C@H](C(C)C)C(=O)N5CCC[C@H]5C(=O)N(C)CC(=O)N(C)[C@@H](C(C)C)C(=O)O[C@@H]4C)c3nc-2c(C(=O)N[C@@H]2C(=O)N[C@H](C(C)C)C(=O)N3CCC[C@H]3C(=O)N(C)CC(=O)N(C)[C@@H](C(C)C)C(=O)O[C@@H]2C)c(N)c1=O [DACTINOMYCIN] (I: T[dV]P[Sar][NMeV] / II: T[dV]P[Sar][NMeV]; ester I:1-I:C, II:1-II:C; linker I:N-II:N via Actinocin(9to1)) |  | 5% |  |  | 6.4 |  |  | 0.8 ×10⁻⁶ cm/s | 4.5 ×10⁻⁶ cm/s | 4 |  |  | 
COc1cccc2c1C(=O)c1c(O)c3c(c(O)c1C2=O)C[C@@](O)(C(C)=O)C[C@@H]3O[C@H]1C[C@H](N)[C@H](O)[C@H](C)O1 [DAUNORUBICIN] | 3 | 10% |  |  |  | 0.4 |  |  |  |  |  |  | 
C[C@H]1O[C@@H](O[C@H]2[C@@H](O)C[C@H](O[C@H]3[C@@H](O)C[C@H](O[C@H]4CC[C@@]5(C)[C@H](CC[C@@H]6[C@@H]5C[C@@H](O)[C@]5(C)[C@@H](C7=CC(=O)OC7)CC[C@]65O)C4)O[C@@H]3C)O[C@@H]2C)C[C@H](O)[C@@H]1O [DIGOXIN] | 12 | 68% |  |  | 7.5 | 1 |  |  |  |  | 1.3 | 27 | 
COc1ccc([C@@H]2Sc3ccccc3N(CCN(C)C)C(=O)[C@@H]2OC(C)=O)cc1 [DILTIAZEM] |  |  | 12 ×10⁻⁶ cm/s | 8.3 ×10⁻⁶ cm/s | 0.7 |  |  |  |  | 0.4 |  | 0.8 | 
O=c1[nH]c2ccccc2n1CCCN1CCC(n2c(=O)[nH]c3cc(Cl)ccc32)CC1 [DOMPERIDONE] |  | 93% | 5.2 ×10⁻⁶ cm/s | 15.4 ×10⁻⁶ cm/s |  |  | 3 |  |  |  |  |  | 
CC[C@H]1OC(=O)[C@H](C)[C@@H](O[C@H]2C[C@@](C)(OC)[C@@H](O)[C@H](C)O2)[C@H](C)[C@@H](O[C@@H]2O[C@H](C)C[C@H](N(C)C)[C@H]2O)[C@](C)(O)C[C@@H](C)C(=O)[C@H](C)[C@@H](O)[C@]1(C)O [ERYTHROMYCIN] |  | 35% | 0.3 ×10⁻⁶ cm/s | 3 ×10⁻⁶ cm/s | 7.1 | 0.5 | 1 |  |  |  | 8.5 |  | 
COc1cc([C@@H]2c3cc4c(cc3[C@@H](O[C@@H]3O[C@@H]5CO[C@@H](C)O[C@H]5[C@H](O)[C@H]3O)[C@H]3COC(=O)[C@H]23)OCO4)cc(OC)c1O [ETOPOSIDE] | 3.3 | 25% | 0.5 ×10⁻⁶ cm/s | 3 ×10⁻⁶ cm/s | 4.8 | 1.4 |  |  |  |  | 9.7 | 11 | 
CC(C)n1c(/C=C/C(O)CC(O)CC(=O)O)c(-c2ccc(F)cc2)c2ccccc21 (centres undefined) [FLUVASTATIN] |  | 98% |  |  |  |  |  | 1.5 ×10⁻⁶ cm/s | 15.3 ×10⁻⁶ cm/s | 12.3 |  | 4.9 | 
CN(Cc1cnc2nc(N)nc(N)c2n1)c1ccc(C(=O)N[C@@H](CCC(=O)O)C(=O)O)cc1 [METHOTREXATE] |  |  | 1.2 ×10⁻⁶ cm/s | 1.1 ×10⁻⁶ cm/s | 0.9 |  | -0.2 |  |  |  |  |  | 
Cc1ccccc1N1C(=O)c2cc(S(N)(=O)=O)c(Cl)cc2NC1C (centres undefined) [METOLAZONE] |  |  |  |  | 3.3 |  |  | 1.8 ×10⁻⁶ cm/s | 9.6 ×10⁻⁶ cm/s | 2.1 | 5.1 |  | 
C=CCN1CC[C@]23c4c5ccc(O)c4O[C@H]2C(=O)CC[C@@]3(O)[C@H]1C5 [NALOXONE] |  |  | 21.5 ×10⁻⁶ cm/s | 10.3 ×10⁻⁶ cm/s | 0.5 |  |  |  |  | 0.5 |  | 0.7 | 
O=C(O)c1cc(/N=N/c2ccc(S(=O)(=O)Nc3ccccn3)cc2)ccc1O [SULFASALAZINE] |  |  |  |  | 16.9 | 32.2 | 9 |  |  |  |  |  | 
O=C1C(CC[S+]([O-])c2ccccc2)C(=O)N(c2ccccc2)N1c1ccccc1 (centres undefined) [SULFINPYRAZONE] |  | 85% |  |  | 3.3 |  |  | 1.2 ×10⁻⁶ cm/s | 5.8 ×10⁻⁶ cm/s | 9 |  |  | 
CC[C@@]1(O)C(=O)OCc2c1cc1n(c2=O)Cc2cc3c(CN(C)C)c(O)ccc3nc2-1 [TOPOTECAN] |  | 30% |  |  | 6.9 |  |  | 0.9 ×10⁻⁶ cm/s | 7.1 ×10⁻⁶ cm/s | 13.1 | 2.4 |  | 
CC[C@]1(O)C[C@@H]2CN(CCc3c([nH]c4ccccc34)[C@@](C(=O)OC)(c3cc4c(cc3OC)N(C)[C@H]3[C@@](O)(C(=O)OC)[C@H](OC(C)=O)[C@]5(CC)C=CCN6CC[C@]43[C@@H]65)C2)C1 [VINBLASTINE] | 0.7 | 5% | 1 ×10⁻⁶ cm/s | 11.9 ×10⁻⁶ cm/s | 13.5 | 2 |  |  |  |  | 1.8 |  | 
IVERMECTIN |  |  |  |  |  |  |  |  |  |  |  |  | 56%

Reference: ChEMBL document CHEMBL3526001, “Attenuation of intestinal absorption by major efflux transporters: quantitative tools and strategies using a Caco-2 model” (Drug Metab Dispos, 2011)
